Reference: PMC11413854, “Reversible Control of Native GluN2B-Containing NMDA Receptors with Visible Light” (ACS Chemical Neuroscience, 2024)
pIC50: −log10 of the molar value. Values joined by “and” are separate entries in the source; they are usually repeats but may differ in a detail not shown here. Equal values may be shown once. Read-outs that look alike come from different tables or passages of the source.

Target: T1, GluN1/GluN2B NMDA receptors (UniProt P35439+Q01097)
T1 construct: expressed in transfected cells; host or cells: Xenopus laevis oocytes (nuclear cDNA injection)
T1 sequence (Q01097 27-1482, other chains not shown): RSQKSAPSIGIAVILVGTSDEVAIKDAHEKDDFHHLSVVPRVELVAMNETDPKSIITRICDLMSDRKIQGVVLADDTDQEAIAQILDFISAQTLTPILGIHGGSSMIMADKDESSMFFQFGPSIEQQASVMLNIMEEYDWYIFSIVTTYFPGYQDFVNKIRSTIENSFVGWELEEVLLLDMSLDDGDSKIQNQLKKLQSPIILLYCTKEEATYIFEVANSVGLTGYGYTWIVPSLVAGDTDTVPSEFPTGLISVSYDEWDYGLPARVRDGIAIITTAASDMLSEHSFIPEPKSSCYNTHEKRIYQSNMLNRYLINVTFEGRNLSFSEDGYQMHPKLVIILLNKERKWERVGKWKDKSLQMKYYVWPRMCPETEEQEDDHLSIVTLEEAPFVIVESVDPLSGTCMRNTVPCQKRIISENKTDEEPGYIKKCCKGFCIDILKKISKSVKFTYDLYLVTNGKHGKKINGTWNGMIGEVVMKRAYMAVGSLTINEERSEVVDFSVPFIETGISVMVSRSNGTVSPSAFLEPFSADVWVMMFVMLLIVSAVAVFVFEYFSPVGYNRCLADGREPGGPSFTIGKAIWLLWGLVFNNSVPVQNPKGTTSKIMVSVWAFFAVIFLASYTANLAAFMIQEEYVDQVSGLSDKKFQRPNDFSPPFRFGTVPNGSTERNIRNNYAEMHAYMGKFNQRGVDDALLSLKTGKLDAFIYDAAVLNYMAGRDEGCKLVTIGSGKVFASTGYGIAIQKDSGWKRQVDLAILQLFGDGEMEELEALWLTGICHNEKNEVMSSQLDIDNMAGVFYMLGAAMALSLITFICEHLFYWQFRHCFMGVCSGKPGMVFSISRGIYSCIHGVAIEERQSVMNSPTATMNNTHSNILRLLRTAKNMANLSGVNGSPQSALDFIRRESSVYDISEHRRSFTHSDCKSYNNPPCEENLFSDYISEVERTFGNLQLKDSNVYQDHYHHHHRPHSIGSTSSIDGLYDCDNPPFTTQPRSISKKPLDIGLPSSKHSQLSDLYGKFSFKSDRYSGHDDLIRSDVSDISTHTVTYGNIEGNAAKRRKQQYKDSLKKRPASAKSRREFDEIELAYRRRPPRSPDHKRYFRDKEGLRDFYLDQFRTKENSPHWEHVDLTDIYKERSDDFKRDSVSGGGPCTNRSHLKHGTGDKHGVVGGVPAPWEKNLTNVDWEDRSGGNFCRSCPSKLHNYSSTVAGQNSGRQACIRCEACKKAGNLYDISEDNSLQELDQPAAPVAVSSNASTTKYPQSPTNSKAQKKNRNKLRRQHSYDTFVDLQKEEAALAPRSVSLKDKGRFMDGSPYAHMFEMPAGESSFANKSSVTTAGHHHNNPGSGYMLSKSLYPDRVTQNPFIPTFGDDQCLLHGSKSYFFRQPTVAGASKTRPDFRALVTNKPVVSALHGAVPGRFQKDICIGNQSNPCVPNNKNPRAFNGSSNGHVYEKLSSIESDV
Test: TEVC electrophysiology on Xenopus oocytes expressing wt GluN1/GluN2B NMDARs
Assay type: cell-based, rat GluN1, mouse GluN2B
Settings: for inhibition of GluN1/GluN2B wt: 1 µM trans-OptoNAM-3 (dark); for pIC50: 100 µM glutamate + glycine, Xenopus oocytes; for remaining activity at 1 µM: [OptoNAM-3] 1 µM; for remaining activity at 3 µM: [OptoNAM-3] 3 µM; for remaining activity at 5 µM: [OptoNAM-3] 5 µM; for remaining activity at 0.025 µM: [OptoNAM-3] 0.025 µM; for remaining activity at 0.05 µM: [OptoNAM-3] 0.05 µM; for remaining activity at 0.22 µM: [OptoNAM-3] 0.22 µM; for remaining activity at 30 µM: [OptoNAM-3] 30 µM; for Relative current for theoretical DRC 9% trans: theoretical for 350 nm PSS
Source text: The activity of OptoNAM-3 was functionally monitored by electrophysiology on Xenopus oocytes (see Methods). To assess the light-dependent effect, we tested the activities of the dark PSS (mostly trans) and the UV PSS (mostly cis, see above) separately. For each concentration, we prepared a solution divided into two samples: one in which the compound was kept in the dark for the duration of the experiment (dark PSS state); and the other that was preilluminated with either 350 or 365 nm light (350 or 365 nm PSS) and then kept away from the light for the duration of the experiment in order to avoid photoisomerization of the compounds by ambient light (see Methods). […] We generated dose–response curves of OptoNAM-3 dark and UV PSS on wild-type (wt) GluN1/GluN2B NMDA receptors (Figure 3A) in the presence of saturating concentrations of agonists (100 μM glutamate and glycine).
We used cDNA coding for rat GluN1–1a (named GluN1 herein) (GenBank: U08261.1), rat GluN2A (GenBank: D13211.1), mouse GluN2B (GenBank: D10651.2), rat GluA1 flop (GenBank: M36418.2), and rat Myc-GluA2(Q)-flip (GenBank: AF164344.1) cloned into pcDNA3-based expression plasmids. GluK2 (GenBank: Z11548.1) corresponds to the fully RNA-edited version.[80] The GluN2B-ΔNTD construct is from ref[45] and GluN2B–N615K is from ref[81]. Single mutants GluN2B-Q110G and GluN1-L135H were from ref[19]. The GluA2 cDNA contains a Myc tag ([…]) fused between the signal peptide and the N-terminus sequences, and the GluA2 subunit is […] for its Q/R/N site (GluA2(Q)) to allow permeation of homomeric GluA2 receptors.[2] cDNAs coding for rat GluN2C (GenBank: M91563.1) and GluN2D subunits (GenBank: L31611.1) were in prK5 plasmids.
Oocytes from Xenopus laevis were used for heterologous expression of recombinant NMDA receptors studied using a two-electrode voltage clamp (TEVC). Female Xenopus laevis were housed and ovary bags harvested according to the European Union guidelines (husbandry authorizations #C75–05–31 and #D75–05–31; project authorizations #05137.02; and Apafis #28867–2020121814485893). Fragments of ovary bags were also purchased from the “Centre de Ressources Biologiques Xenopes” (now TEFOR, Paris Saclay, France) and from the European Xenopus Resource Center (EXRC, Portsmouth, UK). Xenopus laevis oocytes were harvested and prepared as previously described in ref[82].
Expression of recombinant NMDA receptors was obtained by oocyte nuclear coinjection of 37 nL of a mixture of cDNAs (at 30 ng/μL) coding for GluN1–1a and various GluN2 subunits (ratio 1:1). The protocol in ref[43] was followed for the expression of GluN1/GluN2A/GluN2B triheteromers. The oocytes were transferred in 96-well plates filled with Barth solution (in mM: 88 NaCl, 1 KCl, 0.33 Ca(NO3)2, 0.41 CaCl2, 0.82 MgSO4, 2.4 NaHCO3, and 7.5 HEPES, pH adjusted to 7.3 with NaOH), supplemented with gentamicin ([…]) and 50 μM APV, a selective NMDA receptor antagonist. Plates were then stored at 18 °C for 24 h for GluN1/GluN2A expression and for 48––72 h for the expression of GluN1/Glu2B, GluN1/GluN2A/GluN2B, and mutants.
TEVC recordings were performed 1–3 days following injection. TEVC recordings were performed using an Oocyte Clamp amplifier OC-725 (Warner Instruments) and computer-controlled via a 1440A Digidata (Molecular Devices). Currents were sampled at 100 Hz and low-pass-filtered at 20 Hz using an 8-pole Bessel filter (900 Series, Frequency Devices Inc.).

[1] = GluN1/GluN2B wt, OptoNAM-3 350 nm PSS, read-out: Relative current (IOpto/I0)
[2] = GluN1/GluN2B wt, OptoNAM-3 365 nm PSS, read-out: Relative current (IOpto/I0)
[3] = GluN1/GluN2B wt, OptoNAM-3 dark PSS (trans), read-out: Relative current (IOpto/I0)

Relative current for theoretical 100% cis (0.025 µM, calculated from the 365 nm PSS curve): 0.953 | Relative current for theoretical 100% cis (0.050 µM, calculated from the 365 nm PSS curve): 0.945 | Relative current for theoretical 100% cis (0.125 µM, calculated from the 350 nm PSS curve): 0.949 | Relative current for theoretical 100% cis (0.125 µM, calculated from the 365 nm PSS curve): 0.988 | Relative current for theoretical 100% cis (0.220 µM, calculated from the 365 nm PSS curve): 1.000 | Relative current for theoretical 100% cis (0.300 µM, calculated from the 350 nm PSS curve): 1.005 | Relative current for theoretical 100% cis (0.300 µM, calculated from the 365 nm PSS curve): 0.993 | Relative current for theoretical 100% cis (0.470 µM, calculated from the 350 nm PSS curve): 1.025 | Relative current for theoretical 100% cis (0.500 µM, calculated from the 365 nm PSS curve): 0.891 | inhibition of GluN1/GluN2B wt: 69.305% | inhibition of GluN1/GluN2B wt (listed as trans-OptoNAM-3): 69% ± 2% | Relative current for theoretical 100% cis (1.000 µM, calculated from the 350 nm PSS curve): 1.085 | Relative current for theoretical 100% cis (1.000 µM, calculated from the 365 nm PSS curve): 0.988 | Relative current for theoretical 100% cis (2.000 µM, calculated from the 350 nm PSS curve): 1.000 | Relative current for theoretical 100% cis (2.000 µM, calculated from the 365 nm PSS curve): 0.933 | Relative current for theoretical 100% cis (3.000 µM, calculated from the 350 nm PSS curve): 1.043 | Relative current for theoretical 100% cis (3.000 µM, calculated from the 365 nm PSS curve): 0.959 | Relative current for theoretical 100% cis (5.000 µM, calculated from the 350 nm PSS curve): 0.994 | Relative current for theoretical 100% cis (5.000 µM, calculated from the 365 nm PSS curve): 0.960 | inhibition at 10 µM (10 µM OptoNAM-3 365 nm PSS, construct GluN1/GluN2B, read-out: Inhibition (%)): 68% | Inhibition, individual values (10 µM OptoNAM-3 dark PSS (trans) as headed, GluN1/GluN2B, single cells, second block): 0.6438 and 0.6778 and 0.6833 and 0.7763 | inhibition at 10 µM (10 µM OptoNAM-3 dark PSS (trans) as headed, GluN1/GluN2B, single cells, second block, read-out: Inhibition, individual values): 63.8% | Inhibition, individual values (10 µM OptoNAM-3 dark PSS (trans), GluN1/GluN2B, single cells, first block): 0.9137 and 0.9546 and 0.9747 | inhibition at 10 µM (10 µM OptoNAM-3 dark PSS (trans), GluN1/GluN2B, single cells, first block, read-out: Inhibition, individual values): 92.7% | inhibition at 10 µM (10 µM OptoNAM-3 dark PSS (trans), construct GluN1/GluN2B, read-out: Inhibition (%)): 94% | Relative current for theoretical 100% cis (30.000 µM, calculated from the 365 nm PSS curve): 0.961 | pIC50 (350 nm PSS, read-out: IC50 on GluN1/GluN2B receptors, preilluminated with 350 nm): 5.36 | pIC50 (365 nm PSS, read-out: IC50 on GluN1/GluN2B receptors, preilluminated with 365 nm): 5.77 | remaining activity at 0.125 µM (GluN1/GluN2B wt, OptoNAM-3 350 nm PSS, [OptoNAM-3] 0.125 µM, read-out: Relative current (IOpto/I0)): 90.7% | remaining activity at 0.3 µM (GluN1/GluN2B wt, OptoNAM-3 350 nm PSS, [OptoNAM-3] 0.3 µM, read-out: Relative current (IOpto/I0)): 91.8% | remaining activity at 0.47 µM (GluN1/GluN2B wt, OptoNAM-3 350 nm PSS, [OptoNAM-3] 0.47 µM, read-out: Relative current (IOpto/I0)): 90% | remaining activity at 1 µM [1]: 86% | remaining activity at 2 µM (GluN1/GluN2B wt, OptoNAM-3 350 nm PSS, [OptoNAM-3] 2 µM, read-out: Relative current (IOpto/I0)): 65.6% | remaining activity at 3 µM [1]: 61.3% | remaining activity at 5 µM [1]: 44.6% | remaining activity at 0.025 µM [2]: 93.3% | remaining activity at 0.05 µM [2]: 91% | remaining activity at 0.125 µM (GluN1/GluN2B wt, OptoNAM-3 365 nm PSS, [OptoNAM-3] 0.125 µM, read-out: Relative current (IOpto/I0)): 91.2% | remaining activity at 0.22 µM [2]: 88% | remaining activity at 0.3 µM (GluN1/GluN2B wt, OptoNAM-3 365 nm PSS, [OptoNAM-3] 0.3 µM, read-out: Relative current (IOpto/I0)): 84.1% | remaining activity at 0.5 µM (GluN1/GluN2B wt, OptoNAM-3 365 nm PSS, [OptoNAM-3] 0.5 µM, read-out: Relative current (IOpto/I0)): 66.6% | remaining activity at 1 µM [2]: 64.4% | remaining activity at 2 µM (GluN1/GluN2B wt, OptoNAM-3 365 nm PSS, [OptoNAM-3] 2 µM, read-out: Relative current (IOpto/I0)): 43.3% | remaining activity at 3 µM [2]: 37.5% | remaining activity at 5 µM [2]: 26.7% | remaining activity at 30 µM [2]: 3.4% | remaining activity at 0.025 µM [3]: 88.7% | remaining activity at 0.05 µM [3]: 82.7% | remaining activity at 0.125 µM (GluN1/GluN2B wt, OptoNAM-3 dark PSS (trans), [OptoNAM-3] 0.125 µM, read-out: Relative current (IOpto/I0)): 75.8% | remaining activity at 0.22 µM [3]: 59.2% | remaining activity at 0.3 µM (GluN1/GluN2B wt, OptoNAM-3 dark PSS (trans), [OptoNAM-3] 0.3 µM (Sup. Fig. 3A/B/E), read-out: Relative current (IOpto/I0)): 58.1% | remaining activity at 1 µM [3]: 30.7% | remaining activity at 2 µM (GluN1/GluN2B wt, OptoNAM-3 dark PSS (trans), [OptoNAM-3] 2 µM (Sup. Fig. 3A/B/E), read-out: Relative current (IOpto/I0)): 14.1% | remaining activity at 3 µM [3]: 9.8% | remaining activity at 5 µM [3]: 9.2% | remaining activity at 30 µM [3]: 0.423% | Relative current for theoretical DRC 9% trans (GluN1/GluN2B wt, [OptoNAM-3] 0.125 µM): 0.958 | Relative current for theoretical DRC 9% trans (GluN1/GluN2B wt, [OptoNAM-3] 0.3 µM): 0.913 | Relative current for theoretical DRC 9% trans (GluN1/GluN2B wt, [OptoNAM-3] 0.47 µM): 0.875
Structure (SMILES): c1ccc(/N=N/c2ccc(CCNc3ccncc3)cc2)cc1 [OptoNAM-3, (E)-N-(4-(Phenyldiazenyl)phenethyl)pyridin-4-amine]
